Source: patent publication US4391827A, “3-(2-Hydroxy-4-(substituted)phenyl)-cycloalkanone and cycloalkanol analgesic agents and intermediates therefor” (priority 1981, dated 1983)

How the values were obtained:
[1] = Suppression of Phenylbenzoquinone Irritant-Induced Writhing (PBQ); type: in vivo, Carworth Farms CF-1 mice; conditions: subcutaneously, mouse; for Analgesic Activity % Protection, PBQ: at 56 mg./kg.; for ED50: sc, PBQ-induced writhing, read-out: Analgesic Activity ED50, PBQ
Method: Suppression of Phenylbenzoquinone Irritant-Induced Writhing
Groups of 5 Carworth Farms CF-1 mice are pretreated subcutaneously or orally with saline, morphine, codeine or the test compound. Twenty minutes (if treated subcutaneously) or fifty minutes (if treated orally) later, each group is treated with intraperitoneal injection of phenylbenzoquinone, an irritant known to produce abdominal contractions. The mice are observed for 5 minutes for the presence or absence of writhing starting 5 minutes after the injection of the irritant. MPE50 's of the drug pretreatments in blocking writhing are ascertained.
(§1) Results of the above tests are recorded as percent maximum possible effect (%MPE). The %MPE of each group is statistically compared to the %MPE of the standard and the predrug control values. The %MPE is calculated as follows: [formula]
(§2) The following abbreviations are used in the Tables: PBQ=phenylbenzoquinone-induced writhing; TF=tail flick; HP=hot plate; RTC=rat tail clamp; and FJ=flinch jump.
(§3) Single values in the tables are ED50 's. A number followed by a second number in parentheses reports the % protection observed at a given dose. Thus, 31(56) indicates 31% protection at a dose of 56 mg./kg. of body weight.

[2] = Mouse Tail Flick Analgesic Testing (TF); type: in vivo, mice; conditions: for ED50: sc; for ED50 / Analgesic Activity % Protection, TF: subcutaneously, mouse tail flick; for Analgesic Activity % Protection, TF: at 10 mg./kg.
Text: (b) Mouse Tail Flick Analgesic Testing
Tail flick testing in mice is modified after D'Amour and Smith, J. Pharmacol. Exp. Ther., 72, 74-79 (1941) using controlled high intensity heat applied to the tail. Each mouse is placed in a snug-fitting metal cylinder, with the tail protruding through one end. This cylinder is arranged so that the tail lies flat over a concealed heat lamp. At the onset of testing an aluminum flag over the lamp is drawn back, allowing the light beam to pass through the slit and focus onto the end of the tail. A timer is simultaneously activated. The latency of a sudden flick of the tail is ascertained. Untreated mice usually react within 3-4 seconds after exposure to the lamp. The end point for protection is 10 seconds. Each mouse is tested at 0.5 and 2 hours after treatment with morphine and the test compound. Morphine has an MPE50 of 3.2-5.6 mg./kg. (s.c.).
as §1, §2, §3

[3] = "Flinch-Jump" Test (FJ); type: in vivo, male albino rats, Charles River (Sprague-Dawley) CD strain; conditions: sc; subcutaneously; rat flinch jump; read-out: Analgesic Activity ED50, FJ
Text: A modification of the flinch-jump procedure of Tenen, Psychopharmacologia, 12, 278-285 (1968) is used for determining pain thresholds. Male albino rats (175-200 g.) of the Charles River (Sprague-Dawley) CD strain are used. Prior to receiving the drug, the feet of each rat are dipped into a 20% glycerol/saline solution. The animals are then placed in a chamber and presented with a series of 1-second shocks to the feet which are delivered in increasing intensity at 30-second intervals. These intensities are 0.26, 0.39, 0.52, 0.78, 1.05, 1.31, 1.58, 1.86, 2.13, 2.42, 2.72 and 3.04 mA. Each animal's behavior is rated for the presence of (a) flinch, (b) squeak and (c) jump or rapid forward movement at shock onset. Single upward series of shock intensities are presented to each rat just prior to, and at 0.5, 2, 4 and 24 hours subsequent to drug treatment.
as §1, §2, §3

[4] = Haffner Tail Pinch Procedure (rat tail clamp, RTC); type: in vivo, male albino rats, Charles River (Sprague-Dawley) CD strain; conditions: for ED50: sc, subcutaneously, rat tail clamp, read-out: Analgesic Activity ED50, RTC
Method: Effect on the Haffner Tail Pinch Procedure
A modification of the procedure of Haffner, Experimentelle Prufung Schmerzstillender. Deutch Med. Wschr., 55, 731-732 (1929) is used to ascertain the effects of the test compound on aggressive attacking responses elicited by a stimulus pinching the tail. Male albino rats (50-60 g.) of the Charles River (Sprague-Dawley) CD strain are used. Prior to drug treatment, and again at 0.5, 1, 2 and 3 hours after treatment, a Johns Hopkins 2.5-inch "bulldog" clamp is clamped onto the root of the rat's tail. The endpoint at each trial is clear attacking and biting behavior directed toward the offending stimulus, with the latency for attack recorded in seconds. The clamp is removed in 30 seconds if attacking has not yet occurred, and the latency of response is recorded as 30 seconds. Morphine is active at 17.8 mg./kg. (i.p.).
as §1, §2, §3

[5] = Mouse Hot Plate Analgesic Testing (HP); type: in vivo, mice; design: key to Analgesic Activity, HP (IA@10): IA: inactive
Method: (a) Mouse Hot Plate Analgesic Testing
The method used is modified after Woolfe and MacDonald, J. Pharmacol. Exp. Ther., 80, 300-307 (1944). A controlled heat stimulus is applied to the feet of mice on a 1/8-inch thick aluminum plate. A 250 watt reflector infrared heat lamp is placed under the bottom of the aluminum plate. A thermal regulator, connected to thermistors on the plate surface, programs the heat lamp to maintain a constant temperature of 57° C. Each mouse is dropped into a glass cylinder (61/2-inch diameter) resting on the hot plate, and timing is begun when the animal's feet touch the plate. The mouse is observed at 0.5 and 2 hours after treatment with the test compound for the first "flicking" movements of one or both hind feet, or until 10 seconds elapse without such movements. Morphine has an MPE50 =4-5.6 mg./kg. (s.c.).
as §1, §2, §3

[6] = subcutaneously, at 10 mg./kg., mouse hot plate

Row | Compound | Analgesic Activity % Protection, PBQ [1] | ED50 [1] | also measured
1 | CC(CCCc1ccccc1)Oc1ccc([C@H]2CCC[C@H](O)C2)c(O)c1 (stereo partly drawn) | 28% | – | –
2 | CCCCCCC(C)(C)c1ccc([C@H]2CC[C@H](O)C2)c(O)c1 (relative stereo) | 36% | – | –
3 | Oc1cc(OCCCCc2ccccc2)ccc1[C@H]1CCC[C@H](O)C1 (relative stereo) | – | ≥ 56 mg/kg | –
4 | CCCCCCC(C)(C)c1ccc([C@]2(C)CCC[C@H](O)C2)c(O)c1 (relative stereo) [Z-3-[4-(1,1-dimethylheptyl)-2-hydroxyphenyl]-3-methylcyclohexanol] | – | ≥ 56 mg/kg | –
5 | CCCCCCC(C)(C)c1ccc([C@H]2C[C@@H](O)CC[C@@H]2C)c(O)c1 (relative stereo) [cis,trans-3-[4-(1,1-dimethylheptyl)-2-hydroxyphenyl]-4-methylcyclohexanol] | – | ≤ 1 mg/kg | –
6 | Oc1cc(OCCCCc2ccccc2)ccc1[C@@H]1CCC[C@H](O)C1 (relative stereo) [cis-3-[2-Hydroxy-4-(4-phenylbutyloxy)phenyl]cyclohexanol] | – | ≤ 56 mg/kg | –
7 | CCCCCCC(C)(C)c1ccc([C@@H]2CC(=O)CC[C@@H]2C)c(O)c1 (relative stereo) [cis-3-[4-(1,1-Dimethylheptyl)-2-hydroxyphenyl]-4-methylcyclohexanone] | – | 1.51 mg/kg | –
8 | CCCCCCC(C)(C)c1ccc([C@@H]2CC[C@H](O)C2)c(O)c1 (relative stereo) [cis-3-[4-(1,1-Dimethylheptyl)-2-hydroxyphenyl]cyclopentanol] | 57% | – | –
9 | CCCCCCC(C)(C)c1ccc([C@@H]2CCC[C@H](O)C2)c(O)c1 (relative stereo) [cis-3-[4-(1,1-dimethylheptyl) 2-hydroxyphenyl]cyclohexanol] | – | 1.1 mg/kg | ED50 [2]: 6.8 mg/kg; ED50 [3]: 4 mg/kg; ED50 [4]: 4.7 mg/kg
10 | CCCCCCC(C)(C)c1ccc([C@@H]2CCCC[C@H](O)C2)c(O)c1 (relative stereo) [cis-3-[4-(1,1-dimethylheptyl)-2-hydroxyphenyl]cycloheptanol] | – | 1.5 mg/kg | Analgesic Activity % Protection, HP [5, 6]: 27%; Analgesic Activity % Protection, TF [2]: 32%; ED50 [3]: 3.5 mg/kg; ED50 [4]: 7.7 mg/kg
11 | CCCCCCC(C)(C)c1ccc([C@@H]2C[C@@H](O)CC[C@H]2C)c(O)c1 (relative stereo) [trans,trans-3-[4-(1,1-dimethylheptyl)-2-hydroxyphenyl]-4-methylcyclohexanol] | – | 0.5 mg/kg | –
12 | CCCCCCC(C)(C)c1ccc([C@H]2CCC[C@H](O)C2)c(O)c1 (relative stereo) [trans-3-[4-(1,1-Dimethylheptyl)-2-hydroxyphenyl]cyclohexanol] | – | 3.8 mg/kg | –
13 | CCCCCCC(C)(C)c1ccc([C@H]2CCCC[C@H](O)C2)c(O)c1 (relative stereo) [trans-3-[4-(1,1-dimethylheptyl)-2-hydroxyphenyl]cycloheptanol] | – | 1.53 mg/kg | Analgesic Activity, HP (IA@10) [5, 6]: IA; Analgesic Activity % Protection, TF [2]: 65%; ED50 [3]: 5.4 mg/kg; ED50 [4]: 5.6 mg/kg
14 | CCCCCCC(C)(C)c1ccc(C2CCCC(=O)C2)c(OCc2ccccc2)c1 (stereo not drawn) [3-[2-Benzyloxy-4-(1,1-dimethylheptyl)phenyl]cyclohexanone] | 20% | – | –
15 | CC(CCCc1ccccc1)Oc1ccc(C2CCCC(=O)C2)c(O)c1 (stereo not drawn) [3-[2-hydroxy-4-(2-(5-phenylpentyloxy))phenyl]cyclohexanone] | – | ≥ 56 mg/kg | –
16 | CCCCCCC(C)(C)c1ccc(C2(C)CCCC(=O)C2)c(O)c1 (stereo not drawn) [3-[4-(1,1-Dimethylheptyl)-2-hydroxyphenyl]-3-methylcyclohexanone] | 31% | – | –
17 | CCCCCCC(C)(C)c1ccc(C2CCCCC(=O)C2)c(O)c1 (stereo not drawn) [3-[4-(1,1-Dimethylheptyl)-2-hydroxyphenyl]cycloheptanone] | – | 2.15 mg/kg | Analgesic Activity % Protection, HP [5, 6]: 33%; Analgesic Activity % Protection, TF [2]: 58%; ED50 [3]: 10.8 mg/kg; ED50 [4]: 4.4 mg/kg
18 | CCCCCCC(C)(C)c1ccc(C2=CC(=O)CCC2)c(O)c1 [3-[4-(1,1-Dimethylheptyl)-2-hydroxyphenyl]cyclohex-2-enone] | 20% | – | –
19 | CCCCCCC(C)(C)c1ccc(C2CCCC(=O)C2)c(O)c1 (stereo not drawn) [3-[4-(1,1-Dimethylheptyl)-2-hydroxyphenyl]cyclohexanone] | – | 4.5 mg/kg | ED50 [2]: 15.3 mg/kg
20 | CCCCCCC(C)(C)c1ccc(C2CCC(=O)C2)c(O)c1 (stereo not drawn) [3-[4-(1,1-Dimethylheptyl)-2-hydroxyphenyl]cyclopentanone] | 15% | – | –
21 | CN1CC[C@]23c4c5ccc(O)c4O[C@H]2[C@@H](O)C=C[C@H]3[C@H]1C5 [Morphine, reference compound] | – | – | MPE50, hot plate ([5]; s.c., mouse): 4 to 5.6 mg/kg; MPE50, tail flick ([2]; s.c., mouse): 3.2 to 5.6 mg/kg; activity in Haffner tail pinch ([4]; 17.8 mg./kg. (i.p.), rat): active
22 | CC(CCCc1ccccc1)Oc1ccc([C@@H]2CCC[C@H](O)C2)c(O)c1 (stereo partly drawn) [cis-3-[2-hydroxy-4-(2-(5-phenylpentyloxy))phenyl]cyclohexanol] | – | 38 mg/kg | –
23 | O=C1CCCC(c2ccc(O)cc2O)C1 (stereo not drawn) [x=1; A+B=oxo; R2=H; R3=H; Z=O; W=H, 3-(2,4-Dihydroxyphenyl)cyclohexanone] | 32% | – | –
24 | COC12CCCC(C1)c1ccc(O)cc1O2 (stereo not drawn) [x=1; A+B=oxo^(c); R2=H; R3=H; Z=O; W=H, 3-(2,4-Dihydroxyphenyl)cyclohexanone Methyl Ketal] | 43% | – | –
